Test results: patent publication US20080220416A1, “Compositions for Inhibiting Cell Growth and Inducing Apoptosis in Cancer Cells and Methods of Use Thereof” (THE BOARD OF TRUSTEES OF THE UNIVERSITY OF ILLINOI, priority 2004, published 2008)

Legend:
Assay type in all cases: cell-based, human
CaSki cells = assay: LY411,575 combinations in CaSki cells, growth inhibition and isobologram analysis; settings: in vitro
Description: To evaluate the possibility that inhibition of Notch signaling may sensitize advanced cervical cancers to the effect of cisplatin chemotherapy because Notch-1 protects these cells from apoptosis through the AKT and NF-κB pathways, a non-peptide, benzodiazepine gamma-secretase inhibitor, LY411,575 (Wong et al., 2004, J Biol. Chem. 279:12876-82) was tested in combination with a AKT inhibitor (AKT inhibitor I) or a proteasome inhibitor (MG-132) for effects on cell growth. The latter class of drugs is thought to act primarily by preventing NF-KB activation (Adams, J, 2002, Curr Opin Oncol 14:628-634; Richardson, P, 2003, Cancer Treat Rev 29 Suppl 1:33-39) caused by proteasome-mediated degradation of IκB.
To determine whether LY411,575 potentiates the effect of AKT inhibitor I or MG-132, CaSki cells were treated with (a) LY411,575 (6.25 μM to 50 μM) and AKT inhibitor 1 (0.5 μM to 75 μM), or (b) LY411,575 (1.5 μM to 200 μM) and MG-132 (0.05 μM to 0.2). Following the drug treatment, the cells were tested for growth inhibition as described above. LY411,575 was synthesized according to methods well known in the art (e.g., see WO-09828268, which is incorporated by reference), and AKT inhibitor I and MG-132 were purchased from Calbiochem.
The IC50 values of LY411,575 in the presence of various concentrations of AKT inhibitor I or MG-132 were measured. […]

[1] = tested on: MDA-MB231 breast cancer cells; assay: Extracellular matrix invasion of MDA-MB231 cells (Matrigel Invasion Chambers); settings: siRNA transfection, 22 hours
Description: (§1) Cytotoxicity and growth of transfected cells were estimated by a standard assay used for cancer drug screening, through the total amount of TCA-precipitated cell proteins after drug treatment (Likhitwitayawuid, K et al., 1993, J Nat Prod 56:30-38): 200 μl of cell suspension (10^5 cells/ml) were added to each well in a 96-well plate. After incubation at, 37° C., in 5% CO2 (30 minutes to 72 hours depending on the time course chosen), 50 μl 50% trichloroacetic acid was added to each well. After incubation at 4° C. for 1 hour, precipitates were washed with water 4-5 times and air dried overnight. One hundred μl of SRB solution (0.4% sulforhodamine B in 1% acetic acid, filtered before use) was added to each well for 30 minutes. Wells were washed with 1% acetic acid 4-5 times and air dried. Two hundred μl 10 mM Tris base was added to each well. Plates were shaken for 5-10 minutes and OD at 490 nm (OD490) was recorded via ELISA reader. To assay matrix invasion, 300 μl of cell suspension (10^6 cells/mL in serum-free medium) were added to invasion inserts (BioCoat Matrigel Invasion Chambers, Becton Dickinson, Bedford, Mass.) and incubated for 22 hours at 37° C., 5% CO2. Cells were stained with 0.9% crystal violet in 10% ethanol for 20 minutes. Inserts were dipped in water several times and air dried. After removal of the non-invading cells from the interior of the inserts, stained invading cells were lysed in 10% acetic acid and OD595 was determined.
Notch silencing was confirmed by Western blot as described above in Example 15 using commercial goat polyclonal antibodies from Santa Cruz Biotechnology to Notch-1 (C-20, Cat# sc-6014 S). For the Western blot analyses, MDA-MB231 cells were treated with 25 μM IL-X for 48 h or with 0.5, 1 or 2 μM z-Leu-Leu-Nle-CHO for 24 h. Cytotoxicity and matrix invasion assays were performed as described above in Example 15. For the cytotoxicity assays, MDA-MB231 cells were treated with […] IL-X for up to 3 days or with 0-20 μM z-Leu-Leu-Nle-CHO for up to 4 days. […]

[2] = tested on: MDA-MB231 breast cancer cells; assay: Cytotoxicity and growth assay in MDA-MB231 breast cancer cells (SRB, TCA-precipitated protein); settings: MDA-MB231; siRNA transfection
Description: An invasive, estrogen-independent breast cancer cell line that spontaneously expresses high levels of Notch-1 and -4, MDA-MB231, and normal human breast cells were used to investigate whether inhibition of Notch activation or expression affects the biological behavior of breast cancer cells. Human Mammary Epithelial Cells (HMEC) were purchased from Clonetics and cultured in mammary epithelial cell basal medium (MEBM) supplemented with 52 μg/ml Bovine Pituitary Extract […], […] human recombinant Epidermal Growth Factor (hEGF), 5 μg/ml insulin, 0.5 μg/ml Hydrocortisone, 50 μg/ml Gentamicin and 50 μg/ml Amphotericin-B. MDA-MB231 (ATCC, Rockville, Md.) were cultured in DMEM medium with 10% FBS. Notch expression in HMEC and MDA-MB231 cells was silenced using highly specific RNAi. Double-stranded synthetic 21-mer RNA oligonucleotides (siRNAs) were purchased from Dharmacon (Lafayette, Colo.). […] Sequence specificity was determined by BLAST searches which determined the uniqueness of the sequences. Transfection of siRNAs was performed using Oligofectamine (Invitrogen) as recommended by the siRNA manufacturer (Dharmacon). Transfection efficiency was optimized and followed on parallel wells using DNA double stranded oligos of identical sequence to the siRNAs, labeled with biotin on one strand. Transfected cells were identified by Streptavidin-horseradish peroxidase staining (Vectastain) and counted. Transfection efficiencies around 80% were routinely obtained.
as §1, with “Cells were stained with 0.9% crystal violet in 10% ethanol for 20 minutes. Inserts were dipped in water several times and air dried.” left out, “determined. […]” for “determined.”

MDA-MB231 cells = assay: Cell cycle distribution of MDA-MB231 cells by flow cytometry; settings: siRNA transfection
Description: Cell cycle analysis was performed to further study the effects of inhibition of Notch signaling in breast cancer cells. MDA-MB231 cells were treated overnight with 0-10 μM z-Leu-Leu-Nle-CHO prior to cell cycle distribution analysis by flow cytometry. Alternatively, MDA-MB231 cells were transfected with Notch-1, Notch-4 or control siRNA as described above in Example 15. For cell cycle distribution analysis by flow cytometry, z-Leu-Leu-Nle-CHO- or siRNA-treated cells (10^6) were pelleted and washed twice in PBS. Cells were then fixed in 80% methanol and stored at −20° C. until use. Fixed cells were pelleted and washed twice in PBS, and resuspended in 50 μl PI:PBS solution (50 μg/ml PI). After RNase A (100 μg/ml) treatment at 37° C. for an hour, cells were analyzed by flow cytometry using a FACScalibur instrument.

NOXA [3] = assay: NOXA antisense oligonucleotide pretreatment before proteasome inhibitors in melanoma cell lines; settings: MG-132, lactacystin or bortezomib; three melanoma cell lines; 24 hrs
Description: To more definitively establish a role for NOXA in the proteasome inhibitor-induced apoptotic response, three different melanoma cell lines were pre-treated with an antisense oligonucleotides (ASO). The ASOs included a NOXA targeted sequence (5′-TCAGTCTACTGATTTACTGG-3′) (SEQ ID NO: 2) and a universal scrambled control oligonucleotide (5′-TTCTACCTCGCGCGATTTAC-3′) (SEQ ID NO: 4) (FIGS. 10A, 10B and 10C), or control oligonucleotide (CO) (5′-CCTTCCCTGAAGGTTCCTCC-3′) (SEQ ID NO: 3) (FIGS. 6B and 6D). All three ASO were provided by ISIS Pharmaceuticals Inc. (Carlsbad, Calif.) as previously described by Qin et al., 2004, Mol Cancer Ther. 3:895-902). Melanoma cells were seeded at 2×10^5 cells into 6 well plates 1 day before transfection. Opti-MEM (InVitrogen) was pre-incubated for 30 minutes at room temperature using a ratio of 3 μM/mL lipofectamine per 100 nmol/L to produce a final oligonucleotide concentration of […]. Cells were washed with PBS and transfection mix (1 ml) was added. […] The treated cells were analyzed for cell viability using APO TARGET Annexin V-FITC staining kits (Biosource) and by Western blot using NOXA and β-actin antibodies as described above.

NOXA [4] = assay: NOXA antisense oligonucleotide in z-Leu-Leu-Nle-CHO-treated melanoma cells (Western blot, sub-G0 DNA content); settings: RJ002L
Description: The role of NOXA in z-Leu-Leu-Nle-CHO-mediated apoptosis of melanoma cells was further evaluated using RJ002L, C8161 and MUM2B melanoma cell lines containing antisense oligonucleotide targeting NOXA. The antisense oligonucleotides (ASO) included a NOXA targeted sequence (5′-TCAGTCTACTGATTTACTGG-3′) (SEQ ID NO: 2) and a control oligonucleotide (CO) (5′-CCTTCCCTGAAGGTTCCTCC-3′) (SEQ ID NO: 3). The ASO were purchased from ISIS Pharmaceuticals Inc. (Carlsbad, Calif.) as previously described by Qin J et al., 2004, Mol Cancer Ther 3:895-902. Melanoma cells were seeded at 2×10^5 cells into 6 well plates I day before transfection. Opti-MEM (InVitrogen) was pre-incubated for 30 minutes at room temperature using a ratio of 3 μM/mL lipofectamine per 100 nmol/L to produce a final oligonucleotide concentration of 50 nmol/L. Cells were washed with PBS and transfection mix (1 ml) was added. After 4 hrs of incubation, RPMI 1640 (1 mL) containing 20% fetal bovine serum and z-Leu-Leu-Nle-CHO (10 μM) was added to the cells and the cells were incubated for 24 hrs. The treated cells were analyzed for cell viability using APO TARGET Annexin V-FITC staining kits (Biosource), for cell cycle progression and by Western blot using NOXA, Bim, Bak and β-actin antibodies as described above.

Question: Which “potency relative to z-Leu-Leu-Nle-CHO” value (CaSki cells) does the source give for C[C@H](NC(=O)[C@@H](O)c1cc(F)cc(F)c1)C(=O)N[C@@H]1C(=O)N(C)c2ccccc2-c2ccccc21 [LY411,575] here?
Answer: less potent than z-Leu-Leu-Nle-CHO in vitro

Question: For “5′-AACCCTGTGCCAATGGAGGCA-3′ [Notch-4 siRNA]”, which extracellular matrix invasion [1] is on record?
Answer: significantly inhibited extracellular matrix invasion

Question: What about the proliferation [2] of the same molecule?
Answer: even stronger anti-proliferative effect in MDA-MB231 cells than Notch-1 silencing

Question: And the cell cycle distribution (MDA-MB231 cells)?
Answer: accumulation of cells in G2/M was maximal at 24 hours

Question: What does the source list for “5′-TCAGTCTACTGATTTACTGG-3′ (antisense TCAGTCTACTGATTTACTGG; listed as DNA, chemistry not given here) [NOXA ASO]”?
Answer: reduction of proteasome inhibitor-induced apoptotic response (NOXA [3]): 30-50%; effect on z-Leu-Leu-Nle-CHO mediated apoptosis (sub-G0 DNA content) (NOXA [4]; C8161, MUM2B, p<0.01 versus control oligonucleotide): significantly reduced z-Leu-Leu-Nle-CHO mediated apoptosis; effect on z-Leu-Leu-Nle-CHO induction of NOXA, Bim, Bak (NOXA [4]; 50 nmol/L oligonucleotide): blocked induction of NOXA, but not Bim or Bak
